# US20110293600A1, “Anticancer Composition Comprising Antitumor Agent and Substance Having Inhibitory Effects on L1CAM Activity and Expression” (KOREA RESEARCH INSTITUTE OF BIOSCIENCE AND BIOTECHNOLOGY, priority 2008, published 2011)
# Assays:
# [1] = tested on: SCK cells subcutaneously transplanted; assay: Cancer growth in mouse xenograft model; format: in vivo, Nude mice Balb/c nu/nu; conditions: Example 3, FIG. 2, A10-A3 10 mg/kg three times per week, cisplatin 3 mg/kg twice per week
# Protocol: Nude mice Balb/c nu/nu were purchased via Central Lab. Animal Inc. from Japan SLC. The mice were 6 to 8 weeks old, weighed 18 to 22 g and acclimated for one week in a lab of the Korean Research Institute of Bioscience and Biotechnology. SCK cells (3×10^7) were subcutaneously transplanted into 40 mice, and were randomly divided into four groups when grown to a tumor mass having a size of 100 to 200 mm^3 after one week. A10-A3 was administered to the mice at a dose of 10 mg/kg three times per week. Cisplatin was administered to the mice at a dose of 3 mg/kg twice per week. As the control group, mIgG was administered at the same level, instead of A10-A3 and saline was administered at the same level, instead of cisplatin. The weight of nude mice and tumors were measured three times per week.
# [2] = tested on: L1CAM protein in cholangiocarcinoma cell lines (SCK); assay: Detection of protein expression of L1CAM using Western blotting; format: cell-based; conditions: SCK transduced with siRNA, cultured 72 hours; compared to siRNA non-specific for L1CAM; FIG. 5(A) lower
# Protocol: In order to knock down expression of L1CAM in cholangiocarcinoma cell lines (SCK), the cells were transduced with siRNA (5′-[…]-3′, Sequence ID No. 1) specific for L1CAM and siRNA (5′-CAGTCGCGTTTGCGACTGG-3′, Sequence ID No. 2) non-specific for L1CAM and then cultured for 72 hours and expression of L1CAM was detected in protein level using Western blotting. In order to isolate the total protein of cell lines treated with siRNA, the cell lines were treated with 500 μl of cell lysis solution (RIPA buffer), and the proteins thus obtained were isolated in 10% SDS-PAGE, transferred to a nitrocellulose membrane and subjected to Western blotting. The nitrocellulose membrane was allowed to react in PBST (PBS+0.1% Tween 20) buffer containing 5% skim milk for one hour and washed two or more times with the PBST buffer. Anti-L1CAM antibody (A10-A3) was added as a primary antibody to the reacted nitrocellulose membrane, followed by allowing to react for 2 hours. The resulting membrane was washed with the PBST buffer five times and reacted with anti-mouse IgG HRP (horseradish peroxidase) conjugate (1:5000 Sigma) for one hour. The reaction solution was washed five times with the PBST buffer and was colored with enhanced chemiluminescence reagent (ECL) (Amersham biosciences) as a detection reagent.
# [3] = tested on: L1CAM mRNA in cholangiocarcinoma cell lines (SCK); assay: Detection of mRNA expression of L1CAM by RT-PCR; format: cell-based; conditions: SCK transduced with siRNA, cultured 72 hours; compared to siRNA non-specific for L1CAM; FIG. 5(A) upper
# Protocol: In order to knock down expression of L1CAM in cholangiocarcinoma cell lines (SCK), the cells were transduced with siRNA (5′-[…]-3′, Sequence ID No. 1) specific for L1CAM and siRNA (5′-CAGTCGCGTTTGCGACTGG-3′, Sequence ID No. 2) non-specific for L1CAM and then cultured for 72 hours. In order to isolate the total RNA of the cultured cholangiocarcinoma cells, the cells were treated with a 1 ml trizol reagent (Invitrogen, Inc.) at room temperature for 5 minutes. 0.2 ml of chloroform was added to the cells, and the mixture was violently shaken about 15 times and allowed to react at room temperature for 3 minutes. The resulting solution was centrifuged at 4° C. and 14,000 rpm for […], 400 μl of the supernatant was transferred to another tube and the same amount of isopropanol was added to the residue and the mixture was allowed to react at room temperature for 10 minutes. The reaction solution was centrifuged at 4° C. at 14,000 rpm for 15 minutes, the supernatant was discarded, and the residue was washed with 75% ethanol. oligo(d)T, dNTP, RNase inhibitor and reverse transcriptase were added to 2 ug of the RNA thus extracted and the mixture was allowed to react at 42° C. for one hour to synthesize cDNA. […]
Compound,proliferation inhibition (tumor growth) [1],total amount of protein expressed (L1CAM) [2],total amount of L1CAM expressed (mRNA) [3]
N.N.[Cl][Pt][Cl] [cisplatin],about 30%,,
"siRNA specific for L1CAM: siRNA (5′-GCCAATGCCTACATCTACGTT-3′, Sequence ID No. 1) specific for L1CAM (listed as DNA, chemistry not given here)",,decrease,decrease
